Data from the METLIN SMRT retention time set (Domingo-Almenara et al. 2019).

assay: gradient 5% acetonitrile 3 min, to 50% in 2 min, to 85% in 15 min, held 3 min, 100 µL/min; settings: column: Zorbax Extend-C18 2.1 x 50 mm; eluents: water / acetonitrile, 0.1% formic acid
How it was run: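 The system's dead and dwell volumes were 40 μL and 900 μL, with a Zorbax Extend-C18 column (2.1 × 50 mm, 1.8 μm) run at 100 μL/min in water and acetonitrile containing 0.1% formic acid each. Pure standards were analyzed in mixtures of ~100 molecules by HPLC–quadrupole time-of-flight mass spectrometry in positive and negative ionization mode. Retention time was assigned from computationally picked, manually inspected adduct peaks.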

Row | SMILES | RP-LC retention time
1 | COc1ccc(-n2ncc3c(=O)n(Cc4nc(-c5cccc(C)c5)no4)cnc32)cc1 | 1050 s
2 | COCC1CN(C2CCC2)CC12CCN(C(=O)C(C)C)CC2 (stereo not given) | 584 s
3 | COc1ccc(-c2csc(NC(=O)c3sc(COc4ccc(Cl)c(C)c4)nc3C)n2)cc1 | 1320 s
4 | Cc1cc(C)n(-c2ccnc(N3CCC(C(=O)NCCN4CCOCC4)CC3)n2)n1 | 607 s
5 | CSc1sc(C)cc1-c1nsc(=O)o1 | 1110 s
6 | O=C1C(N2CCCN(S(=O)(=O)c3cc(F)cc(F)c3)CC2)CCN1CC1CC1 (stereo not given) | 661 s
7 | CCCOC(=O)C1=C(C)NC2=C(C(=O)C(C(=O)OC)C(C)C2)C1c1cccc(F)c1 (stereo not given) | 994 s
8 | CCOc1ccc(-c2noc(CN3C(=O)COc4ccc(C)cc43)n2)cc1OC | 1010 s
9 | CC(C)c1ccc(-n2nc(N3CCN(C(=O)c4cccs4)CC3)ccc2=O)cc1 | 913 s
10 | CC1(C(=O)NC2CCCCC2)CN(S(C)(=O)=O)CC(=O)N1c1ccc(Cl)cc1 (stereo not given) | 860 s
11 | COc1ccc2c(c1)C1(CCN(C(=O)c3cccc(C)c3)C1)C(=O)N2 (stereo not given) | 738 s
12 | CC(C)N1CC(CNC(=O)c2ccc(Cl)s2)C2(CCCCC2)C1 (stereo not given) | 694 s
13 | CCn1nnc2cc(-c3noc(CNC(=O)Cc4ccc(Cl)cc4)n3)ccc21 | 816 s
14 | Cc1cccc(Sc2nccnc2N2CCCC(C(=O)NCc3ccc4c(c3)OCO4)C2)c1 (stereo not given) | 1030 s
15 | O=S(=O)(c1ccc(Br)cc1)N1CCSC1c1ccco1 (stereo not given) | 965 s
16 | O=C(c1ccn2c(-c3ccc(Cl)cc3)nnc2c1)N1CCN(c2ccccn2)CC1 | 596 s
17 | CCCn1cc(CNC(=O)C2CCCN(c3nnc4ccc(C(F)(F)F)cn34)C2)c(C)n1 (stereo not given) | 709 s
18 | Cc1cc(C)c(S(=O)(=O)N2CCCC2c2nc(-c3ccc(F)cc3)no2)cc1C (stereo not given) | 1270 s
19 | COc1ccc(-c2noc(N3CCC(C(=O)NCCC4=CCCCC4)CC3)n2)cc1 | 1050 s
20 | O=C(O)c1cncc(Br)c1 | 701 s
21 | CC(C)C(=O)NCCc1csc(C2CCCN(C(=O)C3CCC3)C2)n1 (stereo not given) | 711 s
22 | Cc1cccnc1Nc1nc(-c2ccc(F)cc2)cs1 | 870 s
23 | Cc1cc(C)n(-c2ccc(=O)n(CCNC(=O)c3cc(C)on3)n2)n1 | 640 s

Results, then the molecule that gave them:

Row | RP-LC retention time | SMILES
24 | 692 s | O=C(CN1C(=O)CCC1=O)Nc1cccc(NC(=O)CN2C(=O)CCC2=O)c1
25 | 686 s | CCN(Cc1ccncc1)C1CN(S(=O)(=O)c2ccc3c(c2)CCC3)C1
26 | 614 s | CCC(=O)NCc1csc(C2CCN(C(=O)C3CCC3)CC2)n1
27 | 830 s | Cc1ccc(N2CCN(C(=O)c3cn4cc(Cl)ccc4n3)CC2)cc1
28 | 571 s | CN(C)CCNC(=O)C1CCN(c2ccc(-c3cccs3)nn2)CC1
29 | 847 s | Cc1nc(CC(=O)NCc2ccccc2C(F)(F)F)sc1C(=O)NCC(C)C
30 | 927 s | O=S(=O)(c1cccn2c(SCc3ccccc3Cl)nnc12)N1CCCCC1
31 | 748 s | O=C1[C@H]2CN(Cc3ccc(F)cc3)C[C@H]2C(=O)N1CCc1ccccc1
32 | 627 s | CC1CCCCN1CCCNC(=O)CCCn1c(=O)c2cccn2c2ccccc21 (stereo not given)
33 | 632 s | CCC1CN2C=NC(N3CCN(C(=O)c4ccc(C)s4)CC3)=CC2=N1 (stereo not given)
34 | 1250 s | CCOc1ccccc1NC(=O)c1sc(-c2cn(CC)c3ncccc23)nc1C
35 | 754 s | CC(C)n1cnc(S(=O)(=O)N2CCC(C(=O)N3CCN(c4ccccc4)CC3)CC2)c1
36 | 985 s | CCOC(=O)c1cc(S(=O)(=O)N2CCCC2C(=O)NCCC2=CCCCC2)cn1C (stereo not given)
37 | 1040 s | CC1=NN(c2ccccc2)C(=O)C1C(=O)c1ccccc1Br (stereo not given)
38 | 911 s | O=C(c1ccccc1F)N1CCC(c2nc(-c3ccccc3)no2)C1 (stereo not given)
39 | 813 s | CCOC(=O)c1ccc(N2C=C(C(=O)N3CCCC3)S(=O)(=O)c3ccccc32)cc1
40 | 813 s | CCC(=O)Nc1ccc(CCc2nc3ccc(C(=O)NC(C)C)cc3[nH]2)cc1
41 | 787 s | CC(NC(=O)Cn1cc(C(=O)C(=O)N2CCOCC2)c2ccccc21)c1ccc2c(c1)OCCCO2 (stereo not given)
42 | 998 s | CCc1ccc(Oc2cc(N3CCC(C(=O)NCCc4ccccc4)CC3)ncn2)cc1
43 | 960 s | O=C(NCCC1CCN(S(=O)(=O)c2ccccc2)CC1)Nc1cc(F)ccc1F
44 | 561 s | CC(C)C(=O)Nc1ccc2nc(N3CCN(CC(=O)N4CCCC4)CC3)cc(C(=O)O)c2c1
45 | 658 s | CCNC(=O)N1CC=C(C(=O)Nc2ccccc2)CC1
